From patent US9306235B2, “Redox flow battery” (SAMSUNG ELECTRONICS CO., LTD., priority 2010, dated 2016)

Experiment: Evaluation of organic electrolyte solubility together with a supporting electrolyte
Format: physicochemical
Details: generation of precipitates identified
Protocol: In the case where an organic electrolyte is used together with a supporting electrolyte, solubility of the organic electrolyte is evaluated. As the supporting electrolyte, TEABF4 and SBPBF4 are added to each of 0.0M, 0.2M, and 0.5M propylene carbonate aliquots, and then 1.2M Fe(bpy)3(BF4)2 is added to a final volume of 10 mL. The generation of precipitates is identified for each case.

[1] = supporting electrolyte 0.0 Mole (0.0M) in propylene carbonate
[2] = supporting electrolyte 0.2 Mole (0.2M) in propylene carbonate
[3] = supporting electrolyte 0.5 Mole (0.5M) in propylene carbonate

CC[N+](CC)(CC)CC.F[B-](F)(F)F [TEABF4, tetraethylammoniumtetrafluoroborate]
Solubility of 1.2M Fe(bpy)3(BF4)2 [1]: Soluble
Solubility of 1.2M Fe(bpy)3(BF4)2 [2]: Precipitation
Solubility of 1.2M Fe(bpy)3(BF4)2 [3]: Precipitation

C1CC[N+]2(C1)CCCC2.F[B-](F)(F)F [SBPBF4, spiro-(1,1′)-bipyrrolidiniumtetrafluoroborate]
Solubility of 1.2M Fe(bpy)3(BF4)2 [1]: Soluble
Solubility of 1.2M Fe(bpy)3(BF4)2 [2]: Soluble
Solubility of 1.2M Fe(bpy)3(BF4)2 [3]: Soluble
